Data reported in US20200069691A1, “HETEROCYCLIC COMPOUNDS AS HIV PROTEASE INHIBITORS” (Merck Sharp & Dohme Corp., priority 2016, published 2020).

Target: T1, wild-type HIV-1 protease (Human immunodeficiency virus type 1 group M subtype B, UniProt P04585)
T1 construct: Escherichia coli expressed wild-type HIV-1 protease protein
Assay: Assay for Inhibition of Microbial Expressed HIV Protease (peptide substrate cleavage, LC-MS/MS readout)
Type: biochemical
Settings: E. coli expressed wild-type HIV-1 protease, mean of at least two independent experiments, read-out: HIV Pr Enzyme HIV1 PR IC50
Method in brief: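 E. coli-expressed wild-type HIV-1 protease ([…]) was preincubated with inhibitor 30 min at room temperature in pH 5.5 acetate buffer (100 mM NaCl, 0.1% BSA). Then 400 μM octapeptide substrate was added and reacted 1 h at 30 °C; inhibition came from LC-MS/MS product peak areas, mean of ≥2 experiments.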

SMILES | IC50
N=C1NC(c2ccccc2)(c2ccccc2)C(=O)N1Cc1cccc(C(=O)N2CCn3ccnc3C2)c1 [Compound 339, 3-[3-(5,6-dihydroimidazo[1,2-a]pyrazin-7(8H)-ylcarbonyl)benzyl]-2-imino-5,5-diphenylimidazolidin-4-one] | 75.8 nM
COc1nnc2n1CCN(C(=O)c1cccc(CN3C(=N)NC(c4ccccc4)(c4ccccc4)C3=O)c1)C2 [Compound 340, 2-imino-3-{3-[(3-methoxy-5,6-dihydro[1,2,4]triazolo[4,3-a]pyrazin-7(8H)-yl)carbonyl]benzyl}-5,5-diphenylimidazolidin-4-one] | 76.4 nM
N=C1NC(c2ccccc2)(c2ccccc2)C(=O)N1Cc1cc(F)cc(C(=O)N2CCn3c(nnc3C(F)(F)F)C2)c1 [Compound 341] | 77.5 nM
CC(C)CC1(c2ccccc2)NC(=N)N(Cc2cccc(C(=O)N3CCN(c4ccccc4)CC3)c2)C1=O (centres unmarked) [Compound 342, 2-imino-5-(2-methylpropyl)-5-phenyl-3-{3-[(4-phenylpiperazin-1-yl)carbonyl]benzyl} imidazolidin-4-one] | 78.8 nM
N=C1NC(c2ccccc2)(c2ccccc2)C(=O)N1Cc1cccc(C(=O)N2CCn3nc(C(F)(F)F)nc3C2)c1 [Compound 343, 2-imino-5,5-diphenyl-3-(3-{[2-(trifluoromethyl)-5,6-dihydro-[1,2,4]triazolo[1,5-a]pyrazin-7(8H)-yl]carbonyl}benzyl) imidazolidin-4-one] | 79.8 nM
CCOC(=O)NC1CCN(C(=O)c2cc(F)cc(CN3C(=N)NC(c4ccccc4)(c4ccccc4)C3=O)c2)CC1 [Compound 344, ethyl [1-({3-fluoro-5-[(2-imino-5-oxo-4,4-diphenylimidazolidin-1-yl)methyl]phenyl}carbonyl)piperidin-4-yl]carbamate] | 81.4 nM
CCCC1(c2ccccc2)NC(=N)N(Cc2cccc(C(=O)N3Cc4cnc(C)nc4C3)c2)C1=O (centres unmarked) [Compound 345, 2-imino-3-{3-[(2-methyl-5,7-dihydro-6H-pyrrolo[3,4-d]pyrimidin-6-yl)carbonyl]benzyl}-5-phenyl-5-propylimidazolidin-4-one] | 81.9 nM
CC(C)CC1(c2ccccc2)NC(=N)N(Cc2cccc(C(=O)N3CCC(n4c(=O)[nH]c5nc(F)ccc54)CC3)c2)C1=O (centres unmarked) [Compound 346, 5-fluoro-1-{1-[(3-{[2-imino-4-(2-methylpropyl)-5-oxo-4-phenylimidazolidin-1-yl]methyl}phenyl)-carbonyl]piperidin-4-yl}-1,3-dihydro-2H-imidazo[4,5-b]pyridin-2-one] | 82.5 nM
COC(=O)N1CCN(C(=O)c2cccc(CN3C(=N)NC(c4ccc(F)cc4)(c4cccc(C(N)=O)c4)C3=O)c2)CC1 (centres unmarked) [Compound 347, methyl 4-[(3-{[4-(3-carbamoylphenyl)-4-(4-fluorophenyl)-2-imino-5-oxoimidazolidin-1-yl]methyl}phenyl)-carbonyl]piperazine-1-carboxylate] | 83.3 nM
COC(=O)N1CCN(C(=O)c2cccc(CN3C(=N)NC(CCC(C)C)(c4cccc(F)c4)C3=O)c2)CC1 (centres unmarked) [Compound 348, methyl 4-[(3-{[4-(3-fluorophenyl)-2-imino-4-(3-methylbutyl)-5-oxoimidazolidin-1-yl]methyl}phenyl)-carbonyl]piperazine-1-carboxylate] | 84.1 nM
N=C1NC(c2ccccc2)(c2ccccc2)C(=O)N1Cc1cccc(C(=O)N2CCn3cc(C(F)(F)F)nc3C2)c1 [Compound 349, 2-imino-5,5-diphenyl-3-(3-{[2-(trifluoromethyl)-5,6-dihydroimidazo-[1,2-a]pyrazin-7(8H)-yl]carbonyl}-benzyl)imidazolidin-4-one] | 84.2 nM
COC(=O)N1CCN(C(=O)c2cccc(CN3C(=N)NC(c4ccc(F)cc4)(c4cccc(C#N)c4)C3=O)c2)CC1 (centres unmarked) [Compound 350, methyl 4-[(3-{[4-(3-cyanophenyl)-4-(4-fluorophenyl)-2-imino-5-oxoimidazolidin-1-yl]methyl}phenyl)carbony1] piperazine-1-carboxylate] | 85.3 nM
CC(C)CCC1(c2ccccc2)NC(=N)N(Cc2cccc(C(=O)N3CCNC(=O)C3)c2)C1=O (centres unmarked) [Compound 351, 4-[(3-{[2-imino-4-(3-methylbutyl)-5-oxo-4-phenylimidazolidin-1-yl]methyl}-phenyl)carbonyl]piperazin-2-one] | 86.7 nM
CC(=O)N1CCN(C(=O)c2cccc(CN3C(=N)NC(c4ccccc4)(c4ccccc4)C3=O)c2)CC1 [Compound 352, 3-{3-[(4-acetylpiperazin-1-yl)carbonyl]benzyl}-2-imino-5,5-diphenylimidazolidin-4-one] | 86.9 nM
CN1CCN(C(=O)c2cc(F)cc(CN3C(=N)NC(c4ccccc4)(c4ccccc4)C3=O)c2)CC1=O [Compound 353, 4-({3-fluoro-5-[(2-imino-5-oxo-4,4-diphenylimidazolidin-1-yl)methyl]phenyl}carbonyl)-1-methylpiperazin-2-one] | 88.8 nM
COC(=O)N1CCN(C(=O)c2cccc(CN3C(=N)NC(CCC(C)C)(c4cccc(-c5cccnc5)c4)C3=O)c2)CC1 (centres unmarked) [Compound 354, methyl 4-[(3-{[2-imino-4-(3-methylbutyl)-5-oxo-4-(3-pyridin-3-ylphenyl)imidazolidin-1-yl]methyl}phenyl)carbonyl] piperazine-1-carboxylate] | 89.1 nM
CCOC(=O)NC1CCN(C(=O)c2cccc(CN3C(=N)NC(c4ccccc4)(c4ccccc4)C3=O)c2)CC1 [Compound 355, ethyl [1-({3-[(2-imino-5-oxo-4,4-diphenylimidazolidin-1-yl)methyl]phenyl}carbonyl)piperidin-4-yl]carbamate] | 89.8 nM
CCc1nnc2n1CCN(C(=O)c1cccc(CN3C(=N)NC(c4ccccc4)(c4ccccc4)C3=O)c1)C2 [Compound 356, 3-{3-[(3-ethyl-5,6-dihydro[1,2,4]triazolo[4,3-a]pyrazin-7(8H)-yl)carbonyl]benzyl}-2-imino-5,5-diphenylimidazolidin-4-one] | 91.2 nM
CN(C)C(=O)N1CCN(C(=O)c2cccc(CN3C(=N)NC(c4ccccc4)(c4ccccc4)C3=O)c2)CC1 [Compound 357, 4-({3-[(2-imino-5-oxo-4,4-diphenylimidazolidin-1-yl)methyl]phenyl}carbonyl)-N,N-dimethylpiperazine-1-carboxamide] | 91.2 nM
CN1CCN(C(=O)c2cccc(CN3C(=N)NC(c4ccccc4)(c4ccccc4)C3=O)c2)CC1=O [Compound 358, 4-({3-[(2-imino-5-oxo-4,4-diphenylimidazolidin-1-yl)methyl]phenyl}carbonyl)-1-methylpiperazin-2-one] | 93.6 nM
N=C1NC(c2ccccc2)(c2ccccc2)C(=O)N1Cc1cccc(C(=O)N2CCN(c3ccc(F)cc3)CC2)c1 [Compound 359, 3-(3-{[4-(4-fluorophenyl)piperazin-1-yl]carbonyl}benzyl)-2-imino-5,5-diphenylimidazolidin-4-one] | 93.9 nM
CC(C)CCC1(c2cccc(-c3cccnc3)c2)NC(=N)N(Cc2cccc(C(=O)N3Cc4cccnc4C3)c2)C1=O (centres unmarked) [Compound 360, 3-[3-(5,7-dihydro-6H-pyrrolo[3,4-b]pyridin-6-ylcarbonyl)benzyl]-2-imino-5-(3-methylbutyl)-5-(3-pyridin-3-ylphenyl)imidazolidin-4-one] | 95.1 nM
CC(C)(C)NC(=O)c1nnc2n1CCN(C(=O)c1cccc(CN3C(=N)NC(c4ccccc4)(c4ccccc4)C3=O)c1)C2 [Compound 361, N-tert-butyl-7-({3-[(2-imino-5-oxo-4,4-diphenylimidazolidin-1-yl)methyl]phenyl}carbonyl)-5,6,7,8-tetrahydro[1,2,4]triazolo[4,3-a]pyrazine-3-carboxamide] | 96.1 nM
N=C1NC(c2ccccc2)(c2ccccc2)C(=O)N1Cc1ccc(Cl)c(C(=O)N2Cc3nccnc3C2)c1 [Compound 362, 3-[4-chloro-3-(5,7-dihydro-6H-pyrrolo[3,4-b]pyrazin-6-ylcarbonyl)benzyl]-2-imino-5,5-diphenylimidazolidin-4-one] | 1.34 nM
N#Cc1ncc2c(n1)CN(C(=O)c1cc(CN3C(=N)NC(c4ccc(F)cc4)(c4ccc(F)cc4)C3=O)ccc1Cl)C2 [Compound 363, 6-[(5-{[4,4-bis(4-fluorophenyl)-2-imino-5-oxoimidazolidin-1-yl]methyl}-2-chlorophenyl)carbonyl]-6,7-dihydro-5H-pyrrolo[3,4-d]pyrimidine-2-carbonitrile] | 1.66 nM
CC(C)CC1(c2ccccc2)NC(=N)N(Cc2ccc(Cl)c(C(=O)N3Cc4cnc(C#N)nc4C3)c2)C1=O (centres unmarked) [Compound 364, 6-[(2-chloro-5-{[2-imino-4-(2-methylpropyl)-5-oxo-4-phenylimidazolidin-1-yl]methyl}phenyl)carbonyl]-6,7-dihydro-5H-pyrrolo[3,4-d]pyrimidine-2-carbonitrile] | 4.17 nM
CC(C)CC1(c2ccccc2)NC(=N)N(Cc2ccc(Cl)c(C(=O)N3Cc4nccnc4C3)c2)C1=O (centres unmarked) [Compound 365, 3-[4-chloro-3-(5,7-dihydro-6H-pyrrolo[3,4-b]pyrazin-6-ylcarbonyl)benzyl]-2-imino-5-(2-methylpropyl)-5-phenylimidazolidin-4-one] | 4.87 nM
CC(C)CC1(c2ccccc2)NC(=N)N(Cc2ccc(Cl)c(C(=O)N3Cc4cccnc4C3)c2)C1=O (centres unmarked) [Compound 366, 3-[4-chloro-3-(5,7-dihydro-6H-pyrrolo[3,4-b]pyridin-6-ylcarbonyl)benzyl]-2-imino-5-(2-methylpropyl)-5-phenylimidazolidin-4-one] | 5.08 nM
N#Cc1ncc2c(n1)CN(C(=O)c1cc(CN3C(=N)NC(c4ccccc4)(c4ccccc4)C3=O)ccc1Cl)C2 [Compound 367, 6-({2-chloro-5-[(2-imino-5-oxo-4,4-diphenylimidazolidin-1-yl)methyl]phenyl}carbonyl)-6,7-dihydro-5H-pyrrolo[3,4-d]pyrimidine-2-carbonitrile] | 5.13 nM
